Read-outs that look alike come from different tables or passages of the source.

A short description of the experiment: Swimming test according to Porsolt (forced swim, motor activity / immobility phases). To be noted: Ratte; for minimal effective dose: read-out: niedrigste, bereits wirksame Dosis. The experiment is classed as in vivo. An excerpt:
Die erfindungsgemäßen Verbindungen der Formel I zeigen zum Beispiel im Schwimm-Test nach Porsolt eine gute dosisabhängige antidepressive Wirkung.
Der Schwimm-Text an der Ratte erfolgt in Anlehnung an die Methode von Porsolt (Porsolt, R.D., A. Bertin and M. Ialfre, 1977, Behavioral despair in mice, Arch. Intern. Pharmacodyn. Ther. 229, 327): Hierzu werden Ratten einzeln in einen mit Wasser gefüllten Plastikbehälter gesetzt. Die Höhe des Behälters ist 30 cm, die Länge beträgt 35 cm und die Breite 20 cm. Das Wasser hat eine Temperatur von 25° C und die Tiefe ist 20 cm. Die Schwimmaktivitäts- beziehungsweise die Immobilisationsphasen der Tiere werden mit Hilfe eines motor activity meters über 15 Minuten in einem Abstand von 1 Minute (Impulse/Min.) registriert. Im Normalfall (das heißt ohne Antidepressivum) machen die Tiere nur für kurze Zeit Schwimmbewegungen und lassen sich dann treiben. Die Zunahme der Aktivitäts- beziehungsweise Abnahme der Immobilisationsphasen (die Tiere schwimmen nicht, sondern lassen sich treiben) gilt als Maß für die antidepressive Wirkung einer Substanz. Die antidepressive Wirkung wird als Wirkung in % für eine bestimmte Dosis antidepressive Wirksubstanz angegeben bezogen auf eine Kontrollgruppe, die keine Wirkstubstanz bekommen hat.

Consider `Clc1cccc(SC2CCNCC2)n1` [Anpirtolin, 6-Chlor-2-piperidyl-(4)-thio-pyridin], for which, where the note is “Dosis 6 mg/kg Körpergewicht, intraperitoneale Applikation, relative to control group without active substance”, the “antidepressive Wirkung (Wirkung in %)” value came to 50%. In addition, the minimal effective dose was found to be 20 mg/kg (oral) and 0.5 mg/kg (iv, intravenös).

These data come from EP0330826A2, “Use of pyridin-2-ethers or pyridin-2-thioethers with a nitrogen-containing cycloaliphatic ring as agents with an antidepressant activity” (ASTA Pharma Aktiengesellschaft, priority 1988, dated 1989).
